Four compounds from patent US8389011B2, “Pharmaceutical compositions of cholesteryl ester transfer protein inhibitors” (Bend Research, Inc., priority 2000, dated 2013) can be followed below.

The data set can be described thus: In vitro dissolution test, microcentrifuge method, in phosphate buffered saline (PBS) pH 6.5. The format is physicochemical. The conditions noted are these: PBS pH 6.5, 37° C., TCmax 1000 μg/mL; for AUC90 / Cmax, 90: Table 16, Drugs 4-9. As to the method: The compositions comprising the CETP inhibitor and concentration-enhancing polymer provide enhanced concentration of the dissolved CETP inhibitor in in vitro dissolution tests. […] An appropriate PBS solution is an aqueous solution comprising 20 mM sodium phosphate (Na2HPO4), 47 mM potassium phosphate (KH2PO4), 87 mM NaCl, and 0.2 mM KCl, adjusted to pH 6.5 with NaOH. An appropriate MFD solution is the same PBS solution wherein additionally is present 7.3 mM sodium taurocholic acid and 1.4 mM of 1-palmitoyl-2-oleyl-sn-glycero-3-phosphocholine. In particular, a composition of the present invention can be dissolution-tested by adding it to MFD or PBS solution and agitating to promote dissolution.
Indeed, for some extremely insoluble CETP inhibitors, in order to identify the MDC achieved it may be necessary to use an amount of test composition such that if all of the CETP inhibitor dissolved, the CETP inhibitor concentration would be 10,000-fold or even more, that of the equilibrium concentration of the CETP inhibitor.
The MDC is taken to be the maximum value of dissolved CETP inhibitor measured over the duration of the test.
Filtration can be conducted using a 13 mm, 0.45 μm polyvinylidine difluoride syringe filter sold by Scientific Resources under the trademark TITAN®. Centrifugation is typically carried out in a polypropylene microcentrifuge tube by centrifuging at 13,000 G for 60 seconds. Other similar filtration or centrifugation methods can be employed and useful results obtained.
The spray-dried dispersions of Examples 6 and 7 were evaluated in an in vitro dissolution test using a microcentrifuge method. In this test, the spray-dried dispersion was added to a microcentrifuge tube for a Drug 2 dose of about 1000 μg/mL (7.2 mg for Example 6, 18 mg for Example 7). The tube was placed in a 37° C. sonicating bath, and 1.8 mL phosphate buffered saline (PBS) at pH 6.5 and 290 mOsm/kg was added. The samples were quickly mixed using a vortex mixer for about 60 seconds. The samples were centrifuged at 13,000 G at 37° C. for 1 minute. The resulting supernatant solution was then sampled and diluted 1:6 (by volume) with methanol and then analyzed by high-performance liquid chromatography (HPLC). The contents of the tubes were mixed on the vortex mixer and allowed to stand undisturbed at 37° C. until the next sample was taken. Samples were collected at 4, 10, 20, 40, 90, and 1200 minutes.
For Control 2, an in vitro dissolution test was performed using the procedures described above except that 1.8 mg of crystalline Drug 2 was used.
In this method, 7.2 mg of each spray-dried dispersion was added to a 2-mL microcentrifuge tube. The tube was placed in a 37° C. sonicating bath, and 1.8 mL of a phosphate-buffered saline (PBS) solution at pH 6.5 and 290 mOsm/kg was added, resulting in a TCmax of 400 μg/mL. The samples were quickly mixed using a combination of vortex mixer and sonication for about 90 seconds. The samples were centrifuged at 13,000 G at 37° C. for 1 minute. The resulting supernatant solution was then sampled and diluted 1:6 (by volume) with methanol and then analyzed by HPLC. The tubes were then mixed on the vortex mixer and allowed to stand undisturbed at 37° C. until the next sample. Samples were collected at 4, 10, 20, 40, 90 and 1200 minutes.
For Control 5, an in vitro dissolution test was performed using the procedure described above, except that 0.72 mg of non-crystalline Drug 3 was placed in a microcentrifuge tube and mixed with 1.8 mL of PBS.
In this method, 15 mg of each SDD was added to a 2-mL microcentrifuge tube. The tube was placed in a 37° C. sonicating bath, and 1.5 mL of a phosphate-buffered saline (PBS) solution at pH 6.5 and 290 mOsm/kg) was added, resulting in a TCmax of 1000 μg/mL. The samples were quickly mixed using a combination of vortex mixer and sonication for about 90 seconds.

The structures appear in SMILES notation.

`CCOC(=O)N1c2cc(CC)c(CC)cc2[C@@H](N(Cc2cc(C(F)(F)F)cc(C(F)(F)F)c2)C(=O)OC)C[C@H]1C` [Control 7, [2R,4S]4-[(3,5-bis-trifluoromethyl-benzyl)-methoxycarbonyl-amino]-6,7-diethyl-2-methyl-3,4-dihydro-2H-quinoline-1-carboxylic acid ethyl ester]: the AUC90 is reported as less than 90 min-μg/mL and the “Cmax, 90” value is less than 1 µg/mL. Under “time 0 min”, the AUC is 0 min-μg/mL and the Concentration is 0 µg/mL. Besides, under “time 4 min”, the AUC is reported as less than 4 min-μg/mL and the Concentration is less than 1 µg/mL. Besides, where the note is “time 10 min”, the AUC is less than 10 min-μg/mL and the Concentration was less than 1 µg/mL. In addition, under “time 20 min”, the AUC is reported as less than 20 min-μg/mL and the Concentration is less than 1 µg/mL. Under “time 40 min”, the AUC is listed as less than 40 min-μg/mL and the Concentration is less than 1 µg/mL. In addition, where the note is “time 90 min”, the AUC is given as less than 90 min-μg/mL and the Concentration was less than 1 µg/mL.
Consider `CC1(C)Cc2nc(C3CCCC3)c([C@@H](F)c3ccc(C(F)(F)F)cc3)c(-c3ccc(F)cc3)c2[C@@H](O)C1` [Control 11, [3S,5S]2-cyclopentyl-4-(4-fluoro-phenyl)-3-[fluoro-(4-trifluoromethyl-phenyl)-methyl]-7,7-dimethyl-5,6,7,8-tetrahydro-quinolin-5-ol], for which the AUC90 is recorded as less than 90 min-μg/mL and the “Cmax, 90” value was less than 1 µg/mL. For the same compound, under “time 0 min”, the AUC is reported as 0 min-μg/mL and the Concentration was 0 µg/mL. For the same compound, where the note is “time 4 min”, the AUC is recorded as less than 4 min-μg/mL and the Concentration is less than 1 µg/mL. Under “time 10 min”, the AUC is on record as less than 10 min-μg/mL and the Concentration was less than 1 µg/mL. For the same compound, under “time 20 min”, the AUC is on record as less than 20 min-μg/mL and the Concentration is less than 1 µg/mL. For the same compound, for the setting “time 40 min”, the AUC is recorded as less than 40 min-μg/mL and the Concentration was less than 1 µg/mL. For the same compound, where the note is “time 90 min”, the AUC is less than 90 min-μg/mL and the Concentration was less than 1 µg/mL.
On to `CCOC(=O)N1c2cc(OC)c(OC)cc2[C@@H](N(Cc2cc(C(F)(F)F)cc(C(F)(F)F)c2)C(=O)OC)C[C@H]1C` [Control 6, [2R,4S]4-[(3,5-bis-trifluoromethyl-benzyl)-methoxycarbonyl-amino]-6,7-dimethoxy-2-methyl-3,4-dihydro-2H-quinoline-1-carboxylic acid ethyl ester], for which the AUC90 is reported as less than 90 min-μg/mL and the “Cmax, 90” value is less than 1 µg/mL. Also, for the setting “time 0 min”, the AUC was determined as 0 min-μg/mL and the Concentration was 0 µg/mL. Moreover, where the note is “time 4 min”, the AUC is less than 4 min-μg/mL and the Concentration is less than 1 µg/mL. Also, for the setting “time 10 min”, the AUC is less than 10 min-μg/mL and the Concentration was less than 1 µg/mL. Besides, for the setting “time 20 min”, the AUC is recorded as less than 20 min-μg/mL and the Concentration is less than 1 µg/mL. Also, for the setting “time 40 min”, the AUC is given as less than 40 min-μg/mL and the Concentration is less than 1 µg/mL. In addition, for the setting “time 90 min”, the AUC is listed as less than 90 min-μg/mL and the Concentration was less than 1 µg/mL.
`COC(=O)N(Cc1cc(C(F)(F)F)cc(C(F)(F)F)c1)[C@H]1C[C@@H](C2CC2)N(C(=O)OC(C)C)c2ccc(C(F)(F)F)cc21` [Control 10, [2S,4S]4-[(3,5-bis-trifluoromethyl-benzyl)-methoxycarbonyl-amino]-2-cyclopropyl-6-trifluoromethyl-3,4-dihydro-2H-quinoline-1-carboxylic acid isopropyl ester]: the AUC90 was less than 90 min-μg/mL and the “Cmax, 90” value was less than 1 µg/mL. Under “time 0 min”, the AUC was determined as 0 min-μg/mL and the Concentration stood at 0 µg/mL. Also, for the setting “time 4 min”, the AUC is reported as less than 4 min-μg/mL and the Concentration is less than 1 µg/mL. Further, under “time 10 min”, the AUC is reported as less than 10 min-μg/mL and the Concentration is less than 1 µg/mL. Also, under “time 20 min”, the AUC is less than 20 min-μg/mL and the Concentration is less than 1 µg/mL. Under “time 40 min”, the AUC is less than 40 min-μg/mL and the Concentration was less than 1 µg/mL. Where the note is “time 90 min”, the AUC is less than 90 min-μg/mL and the Concentration was less than 1 µg/mL.
